Patent US10168342B2, “Lipid probes and uses thereof” (THE SCRIPPS RESEARCH INSTITUTE, priority 2015, dated 2019)
Read-outs that look alike come from different tables or passages of the source.

What was measured:
[1] = target: AEA-DA lipid probe targets in Neuro2a cells (Mus musculus, UniProt Q61584)
[2] = target: T1, AEA-DA lipid probe targets in Neuro2a cells (Mus musculus, UniProt P42125)
T1 sequence (P42125 29-289): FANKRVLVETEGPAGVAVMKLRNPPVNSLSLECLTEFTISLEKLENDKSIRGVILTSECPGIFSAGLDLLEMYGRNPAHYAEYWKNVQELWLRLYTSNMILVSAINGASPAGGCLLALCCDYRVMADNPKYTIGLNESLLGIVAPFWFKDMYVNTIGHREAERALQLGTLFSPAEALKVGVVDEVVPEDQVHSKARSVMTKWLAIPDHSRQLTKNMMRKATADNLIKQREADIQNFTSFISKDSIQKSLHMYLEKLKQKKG

[3] = target: T2, AEA-DA lipid probe targets in Neuro2a cells (Mus musculus, UniProt Q61425)
T2 sequence (Q61425 13-314): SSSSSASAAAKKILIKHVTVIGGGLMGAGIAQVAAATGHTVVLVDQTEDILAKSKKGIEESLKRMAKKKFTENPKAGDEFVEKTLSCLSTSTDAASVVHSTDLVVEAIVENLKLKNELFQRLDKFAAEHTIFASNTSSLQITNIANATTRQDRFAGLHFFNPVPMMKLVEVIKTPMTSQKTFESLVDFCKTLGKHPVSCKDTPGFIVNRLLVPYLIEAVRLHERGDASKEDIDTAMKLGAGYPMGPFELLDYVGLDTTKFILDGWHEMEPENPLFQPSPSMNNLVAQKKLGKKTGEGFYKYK

[4] = target: T3, AEA-DA lipid probe targets in Neuro2a cells (Mus musculus, UniProt Q5XJY4)
T3 sequence (Q5XJY4 51-377): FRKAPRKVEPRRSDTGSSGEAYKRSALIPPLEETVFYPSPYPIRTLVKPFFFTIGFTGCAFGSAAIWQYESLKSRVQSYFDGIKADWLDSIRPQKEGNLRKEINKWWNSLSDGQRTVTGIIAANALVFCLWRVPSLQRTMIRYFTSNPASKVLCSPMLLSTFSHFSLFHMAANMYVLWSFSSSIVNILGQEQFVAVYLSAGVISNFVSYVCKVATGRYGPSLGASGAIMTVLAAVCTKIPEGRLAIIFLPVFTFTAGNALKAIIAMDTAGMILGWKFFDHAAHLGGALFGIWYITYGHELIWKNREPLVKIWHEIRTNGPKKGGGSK

[5] = target: T4, AEA-DA lipid probe targets in Neuro2a cells (Mus musculus, UniProt Q8R1L4)
T4 sequence (Q8R1L4 1-214): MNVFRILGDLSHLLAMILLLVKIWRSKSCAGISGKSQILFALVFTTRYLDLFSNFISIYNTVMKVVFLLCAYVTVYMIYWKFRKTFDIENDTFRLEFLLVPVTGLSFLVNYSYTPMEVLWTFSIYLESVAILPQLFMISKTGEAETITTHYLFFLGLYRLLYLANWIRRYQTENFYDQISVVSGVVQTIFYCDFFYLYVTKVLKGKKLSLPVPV

[6] = target: T5, AEA-DA lipid probe targets in Neuro2a cells (Mus musculus, UniProt Q61595)
T5 sequence (Q61595 1-1327): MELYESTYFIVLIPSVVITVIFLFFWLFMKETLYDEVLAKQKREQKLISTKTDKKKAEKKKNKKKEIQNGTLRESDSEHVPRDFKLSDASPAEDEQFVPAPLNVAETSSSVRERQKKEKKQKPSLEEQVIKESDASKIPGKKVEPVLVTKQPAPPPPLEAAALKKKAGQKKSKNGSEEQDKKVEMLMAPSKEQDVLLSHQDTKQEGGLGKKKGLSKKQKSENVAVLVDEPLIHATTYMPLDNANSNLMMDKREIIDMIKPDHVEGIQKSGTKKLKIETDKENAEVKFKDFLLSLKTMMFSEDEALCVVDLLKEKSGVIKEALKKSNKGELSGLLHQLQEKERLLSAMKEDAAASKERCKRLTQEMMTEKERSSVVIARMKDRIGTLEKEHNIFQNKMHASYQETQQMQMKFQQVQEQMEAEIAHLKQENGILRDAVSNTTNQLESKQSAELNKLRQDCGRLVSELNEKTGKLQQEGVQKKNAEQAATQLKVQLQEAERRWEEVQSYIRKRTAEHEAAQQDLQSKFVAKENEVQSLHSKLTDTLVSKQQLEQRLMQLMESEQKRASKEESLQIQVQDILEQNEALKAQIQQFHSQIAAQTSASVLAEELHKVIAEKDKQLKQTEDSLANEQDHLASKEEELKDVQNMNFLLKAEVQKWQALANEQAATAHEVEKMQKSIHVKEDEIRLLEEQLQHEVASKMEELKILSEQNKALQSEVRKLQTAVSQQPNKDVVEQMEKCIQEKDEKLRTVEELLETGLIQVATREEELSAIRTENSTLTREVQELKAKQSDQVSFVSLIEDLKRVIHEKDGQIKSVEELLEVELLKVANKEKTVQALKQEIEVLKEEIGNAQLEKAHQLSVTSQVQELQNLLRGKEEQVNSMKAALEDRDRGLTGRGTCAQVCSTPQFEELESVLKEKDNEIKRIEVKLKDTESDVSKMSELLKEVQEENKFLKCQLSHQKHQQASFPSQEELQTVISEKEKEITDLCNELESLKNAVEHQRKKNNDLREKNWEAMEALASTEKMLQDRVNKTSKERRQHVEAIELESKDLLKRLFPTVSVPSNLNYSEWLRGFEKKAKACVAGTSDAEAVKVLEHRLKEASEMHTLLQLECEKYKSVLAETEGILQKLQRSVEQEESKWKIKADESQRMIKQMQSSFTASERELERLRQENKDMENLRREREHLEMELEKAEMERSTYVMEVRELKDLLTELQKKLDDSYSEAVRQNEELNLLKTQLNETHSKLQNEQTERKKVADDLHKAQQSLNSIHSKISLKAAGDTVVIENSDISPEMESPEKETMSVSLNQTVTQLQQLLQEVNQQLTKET

Chain of AEA-DA lipid probe targets in Neuro2a cells (Mus musculus, UniProt Q61584) (Q61584 whole entry): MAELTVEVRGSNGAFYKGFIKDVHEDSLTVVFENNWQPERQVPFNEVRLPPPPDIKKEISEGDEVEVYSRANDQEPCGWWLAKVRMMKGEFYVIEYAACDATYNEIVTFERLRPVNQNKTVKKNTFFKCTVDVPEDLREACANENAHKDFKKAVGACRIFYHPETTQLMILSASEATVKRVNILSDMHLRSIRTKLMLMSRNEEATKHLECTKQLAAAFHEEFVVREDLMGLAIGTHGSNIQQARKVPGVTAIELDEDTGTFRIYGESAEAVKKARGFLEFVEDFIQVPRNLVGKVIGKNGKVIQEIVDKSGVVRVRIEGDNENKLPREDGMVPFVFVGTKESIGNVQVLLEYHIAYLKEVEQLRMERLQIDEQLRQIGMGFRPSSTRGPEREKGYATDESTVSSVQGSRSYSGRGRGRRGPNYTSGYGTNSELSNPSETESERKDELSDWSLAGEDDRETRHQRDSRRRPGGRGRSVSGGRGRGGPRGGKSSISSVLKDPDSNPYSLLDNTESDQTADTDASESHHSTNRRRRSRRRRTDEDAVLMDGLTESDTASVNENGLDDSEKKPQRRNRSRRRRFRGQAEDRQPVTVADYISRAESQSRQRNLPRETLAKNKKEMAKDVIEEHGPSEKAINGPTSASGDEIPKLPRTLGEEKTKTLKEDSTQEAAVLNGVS

SMILES | SILAC ratio Fxr1 ([1]; competitor 25 μM) | SILAC ratio, Eci1 ([2]; competitor 25 μM) | SILAC ratio Hadh ([3]; competitor 25 μM) | SILAC ratio Parl ([4]; competitor 25 μM) | SILAC ratio, Kdelr3 ([5]; competitor 25 μM) | SILAC ratio, Ktn1 ([6]; competitor 25 μM) | also measured
CCCCC/C=C\C/C=C\C/C=C\C/C=C\CCCC(=O)NCCO [AEA, anandamide, reference compound] | – | – | – | – | – | – | SILAC ratio Fxr1 ([1]; competitor 200 μM): 1.1; SILAC ratio, Eci1 ([2]; competitor 200 μM): 2.0; SILAC ratio Hadh ([3]; competitor 200 μM): 1.2; SILAC ratio Parl ([4]; competitor 200 μM): 1.3; SILAC ratio, Kdelr3 ([5]; competitor 200 μM): 1.2; SILAC ratio, Ktn1 ([6]; competitor 200 μM): 1.4
O=C(/C=C/c1cccnc1)NCCCCC1CCN(C(=O)c2ccccc2)CC1 [FK-866, reference compound] | 1.4 | 1.2 | 1.2 | 1.3 | 1.1 | 1.2 | –
CN1CCN(C(=O)c2c(-c3ccccc3)c3cc([N+](=O)[O-])ccc3n2C)CC1 [KML110, (1-Methyl-5-nitro-3-phenyl-1H-indol-2-yl)(4-methylpiperazin-1-yl)methanone] | 1.5 | 1.5 | 1.2 | 1.3 | 1.2 | – | –
CN1CCN(C(=O)c2[nH]c3ccc([N+](=O)[O-])cc3c2-c2ccccc2)CC1 [MJN228, (4-Methylpiperazin-1-yl)(5-nitro-3-phenyl-1H-indol-2-yl)methanone] | 1.3 | 2.0 | 1.3 | 1.4 | 1.3 | 1.4 | SILAC ratio Fxr1 ([1]; competitor 10 μM): 1.2; SILAC ratio Fxr1 ([1]; competitor 50 μM): 1.1; SILAC ratio Fxr1 ([1]; competitor 100 μM): 1.1; SILAC ratio, Eci1 ([2]; competitor 10 μM): 1.4; SILAC ratio, Eci1 ([2]; competitor 50 μM): 2.4; SILAC ratio, Eci1 ([2]; competitor 100 μM): 3.8; SILAC ratio Hadh ([3]; competitor 10 μM): 1.3; SILAC ratio Hadh ([3]; competitor 50 μM): 1.1; SILAC ratio Hadh ([3]; competitor 100 μM): 1.3; SILAC ratio Parl ([4]; competitor 10 μM): 1.3; SILAC ratio Parl ([4]; competitor 50 μM): 1.1; SILAC ratio Parl ([4]; competitor 100 μM): 1.9; SILAC ratio, Kdelr3 ([5]; competitor 10 μM): 1.2; SILAC ratio, Kdelr3 ([5]; competitor 50 μM): 1.3; SILAC ratio, Kdelr3 ([5]; competitor 100 μM): 1.6; SILAC ratio, Ktn1 ([6]; competitor 10 μM): 1.0; SILAC ratio, Ktn1 ([6]; competitor 100 μM): 1.2
C=CCN(C)CCCCCCOc1ccc(C(=O)c2ccc(Br)cc2)c(F)c1 [Ro 48-8071, reference compound] | 0.9 | 0.9 | 0.8 | 1.1 | 0.9 | 0.8 | –
